Measured values from patent publication US20260275403A1, “METHOD FOR DETECTION OF NUCLEIC ACID END(S)” (INTODNA SPÓLKA AKCYJNA, priority 2023, published 2026).
Entries after “also recorded” stand apart in the source; their conditions may differ.

Experiments:
HAP1 parental cells = conditions: 6TG at a higher concentration
Method: (§1) • 1. Proteinase K treatment of the biological material for 30 seconds (at a concentration of about 7 μg/mL (1:350 dilution of proteinase K stock concentration of 2.5 mg/mL), solution in PBS) at about 22° C. (i.e. room temperature) • 2. (optional) incubation with 1 mM PMSF in PBS for 5 minutes at about 22° C. • 3. (optional) rinse with PBS
(§2) • 5. Polymerase I reaction at 37° C. with polymerase I enzyme, […], biotin-16-dUTP, biotin-16-dCTP, and dGTP • 6. (optional) rinse with buffer
(§3) • 1. (optional) 60 min incubation in Navinci Blocking Buffer at 37° C. • 2. 60 min incubation in 1:100 rabbit monoclonal anti-PMS2 (or PMS1 or MLH1) antibody in Navinci Primary Antibody Diluent at about 22° C. • 3. (optional) PBS rinse • 4. 60 min incubation in 1:100 mouse monoclonal anti-biotin antibody in Navinci Primary Antibody Diluent at about 22° C. • 5. (optional) PBS rinse
(§4) • 1. PLA probes binding reaction at 37° C. (Navinci PLA reagents and standard protocol) • 2. Reaction A at 37° C. • 3. Reaction B at 37° C. • 4. Reaction C at 37° C. […]
(§5) When cell confluence reached 90%, cells were washed with sterile PBS (without Ca^2+ and Mg^2+) and incubated for 2 min with 2 mL of 0.25% trypsin solution with EDTA. Trypsin was inactivated with the culture medium containing FBS and the collected cells were counted in the Burker chamber. […]

HAP1 PMS2 KO cells = conditions: 6TG 1 uM 48 h treatment
Method: as §1, §2, §3, §4, §5

HAP1 cells (WT and KO) = system: HAP1 cells (WT and KO)
Method: as §1, §2, §3
(§6) • 1. PLA probes binding reaction at 37° C. (Navinci PLA reagents and standard protocol) • 2. Reaction A at 37° C. • 3. Reaction B at 37° C. • 4. Reaction C at 37° C.
After 24 h of rest the operation medium was changed to a fresh one with supplementation of 1 μM or 10 μM 6-Tioguanine (6TG) in DMSO and left to rest for the incubation time 48h (final DMSO concentration was 0.1% in medium in each experimental condition). […]

human cells U2OS WT = system: human cells U2OS WT
Method: as §1, §2, §3, §6
In vehicle conditions the operation medium was changed to a fresh one with supplementation of 0.1% sterile DMSO and left to rest for the incubation time.

[1] = system: NCI-H1693 (i.e. HR deficient cell line); assay: dSTRIDE-RAD51 (dSTRIDE-HR), RAD51-associated double-strand DNA breaks; assay type: cell-based, human; conditions: NCI-H1693, 5 μM or 50 μM etoposide, 48h
Method: (§7) • 1. […] (i.e. room temperature) • 2. […] (optional) rinse with PBS
(§8) • 1. TdT reaction at 37° C. with BrdU and TdT enzyme • 2. (optional) rinse with PBS
(§9) • 6. […] 7. […] (optional) PBS rinse • 9. […] (optional) PBS rinse
as §6
(§10) NCI-H1693 and NCI-H661 were purchased from ATCC cell culture collection (18.05.2022). The detailed cell culture description is listed on Table 16. […] The master bank collection was prepared form #1 passage.
(§11) (also included passage number).
(§12) The labelling was performed according to protocols described in Examples 2 or 3.

[2] = system: NCI-H661 (i.e. HR proficient cell line); assay: as above; assay type: cell-based, human; conditions: 48h; for number of dSTRIDE-HR (RAD51) foci: NCI-H661, 5 μM or 50 μM etoposide
Method: as §7, §8, §9, §6, §10, §11, §12

[3] = system: NCI-H1693 (i.e. HR deficient) cell line; assay: dSTRIDE-RPA, RPA70-associated double-strand DNA breaks; assay type: cell-based, human; conditions: 48h
Method: as §8
(§13) • 1. […] (optional) PBS rinse • 4. […] (optional) PBS rinse
as §6, §10, §11, §12

[4] = system: NCI-H661 (i.e. HR proficient cell line); assay: as above; assay type: cell-based, human; conditions: NCI-H661, 5 μM or 50 μM etoposide, 48h
Method: as §8, §13, §6, §10, §11, §12

[5] = system: NCI-H1693 (i.e. HR deficient) cell line; assay: dSTRIDE, double-strand DNA breaks; assay type: cell-based, human; conditions: 48h; for number of double-strand DNA breaks detected by dSTRIDE: NCI-H1693, 5 μM or 50 μM etoposide
Method: as §10, §11, §12

[6] = system: NCI-H661 (i.e. HR proficient cell line); assay: dSTRIDE, double-strand DNA breaks; assay type: cell-based, human; conditions: 48h; for number of double-strand DNA breaks detected by dSTRIDE: NCI-H661, 5 μM or 50 μM etoposide
Method: as §10, §11, §12

[7] = NCI-H1693 versus NCI-H661, 50 uM etoposide

Nc1nc2[nH]cnc2c(=S)[nH]1 [6TG, 6-Tioguanine]
level of sSTRIDE-MMR signals (HAP1 parental cells): elevated level of sSTRIDE-MMR signals
number of sSTRIDE-MMR fluorescence foci (HAP1 PMS2 KO cells): does not result in a significant increase
sSTRIDE-MMR (MLH1) readouts (HAP1 cells (WT and KO); HAP1 PMS2 WT and KO, 6TG treatment): increase in sSTRIDE-MMR (MLH1) readouts
PMS1 at SSBs (sSTRIDE-PMS1) (HAP1 cells (WT and KO); after treatment with 6TG): engaged in MMR processes
maximum number of sSTRIDE MMR foci per nucleus (human cells U2OS WT; Sample 4, 6TG treated U2OS WT cells, 48 h (6TG 100nM per Table 3), antigen retrieval 1 (proteinase K 2 min)): 3 foci per nucleus
response in number of foci detected after 6TG treatment (quantitative image analysis) (human cells U2OS WT; U2OS WT, 6TG 48 h, antigen retrieval 1 (proteinase K 2 min)): no response
number of foci in the nucleus after treatment (human cells U2OS WT; U2OS WT, 48 h 6TG in different concentration, Abcam antibody, antigen retrieval method v2): did not significantly increase number of foci
sSTRIDE MMR readouts level of 6TG treated cells versus non-treated samples (human cells U2OS WT; U2OS WT, Abcam antibody, 6TG 250 nM-10 μM, 24 h or 48 h, antigen retrieval method 2): lower than in the non-treated samples

COc1cc([C@@H]2c3cc4c(cc3[C@@H](O[C@@H]3O[C@@H]5CO[C@@H](C)O[C@H]5[C@H](O)[C@H]3O)[C@H]3COC(=O)[C@H]23)OCO4)cc(OC)c1O [etoposide, Etoposide]
number of RAD51-associated double-strand DNA breaks detected by dSTRIDE-RAD51 [1]: no response
number of RAD51-associated double-strand DNA breaks detected by dSTRIDE-RAD51 ([1]; listed as Etoposide): did not results in a detectable increase; also recorded: no response
number of dSTRIDE-HR (RAD51) foci [2]: dose-dependent increase; also recorded: dose-dependent response
number of dSTRIDE-HR (RAD51) foci ([2]; listed as Etoposide): increase in the number of visible fluorescence foci
number of RAD51-associated double-strand DNA breaks detected by dSTRIDE-RAD51 ([2]; NCI-H661, 50 uM etoposide): significant increase
number of RPA-associated double-strand DNA breaks detected by dSTRIDE-RPA ([3]; NCI-H1693, 5 μM or 50 μM etoposide): dose-dependent increase in the number of dSTRIDE-RPA foci
dSTRIDE-RPA foci, cell line comparison [3, 7]: more dSTRIDE-RPA foci detected in HR deficient cell line
number of RPA-associated double-strand DNA breaks detected by dSTRIDE-RPA [4]: dose-dependent increase in the number of dSTRIDE-RPA foci; also recorded: dose-dependent response
number of double-strand DNA breaks detected by dSTRIDE [5]: increase in the number of double-strand DNA breaks; also recorded: dose-dependent increase in the number of DSBs; also recorded: dose-dependent formation of double-strand DNA breaks
number of double-strand DNA breaks detected by dSTRIDE ([5]; listed as Etoposide): efficiently induces DSBs
increase in DSBs (dSTRIDE), cell line comparison ([5]; NCI-H1693, 5 um etoposide): comparable in both cell lines
number of DSBs (dSTRIDE), cell line comparison [5, 7]: more profound increase; also recorded: more DSBs are induced in HR deficient than in HR proficient cell lines
number of double-strand DNA breaks detected by dSTRIDE [6]: dose-dependent increase in the number of DSBs; also recorded: dose-dependent response
number of double-strand DNA breaks detected by dSTRIDE ([6]; listed as Etoposide): efficiently induces DSBs
increase in DSBs (dSTRIDE), cell line comparison ([6]; NCI-H661, 5 um etoposide): comparable in both cell lines
